Measurements reported in a melting point compilation (Tetko et al.; mined from patent text by program, amines drawn as free bases though some values may be those of a salt).

Compound | melting point [°C]
O=C(Nc1nccs1)c1cccc(C[C@@H]2COc3ccc(OCc4nc5cc(F)ccc5s4)cc3[C@@H]2O)c1 (relative stereo) | 120
Cc1c(C)c2c(c(C)c1N)OC(C)(C)C2c1ccc(C(C)C)cc1 (stereo not drawn) | 120 to 121
CC(C)(C)c1cc(C(=O)NCCCSc2ccncc2)cc(C(C)(C)C)c1O | 203 to 204
O=C(NC(=O)c1ccco1)C(=O)Oc1ccc([N+](=O)[O-])cc1 | 115
COC(=O)[C@H](C)NC(=O)CCn1cc(C2=C(c3cn(C)c4ccccc34)C(=O)NC2=O)c2ccccc21 | 142 to 149
CC1(C)CC(=O)c2c(S(C)(=O)=O)sc(C(=O)N3CCCC3)c2C1 | 161
N=C(Nc1ccc(C(F)(F)F)cc1)Nc1ncccc1OCc1ccccc1 | 154 to 155
Cc1nc2c(NCc3c(C)cccc3C)cc(C(=O)N(C)C)cc2[nH]1 | 203
COC1C2=C3C(=CN1OC)OCCC3CC(C(N)=O)C2 (stereo not drawn) | 224 to 226
CS(=O)(=O)Cc1c(C(=O)NN2CCCCC2)nn(-c2ccc(Cl)cc2Cl)c1-c1ccc(Cl)cc1 | 171
NC(Cc1cc(Cl)ccc1CCP(=O)(O)O)C(=O)O (stereo not drawn) | > 160
C=C(C)C(OC(=O)Nc1cc(OC(=O)Oc2cc(NC(=O)OC(C(=C)C)C(=O)OC)c(F)cc2Cl)c(Cl)cc1F)C(=O)OC (stereo not drawn) | 72 to 74
CCc1c2c(nc3cc(F)cc(F)c13)-c1cc3c(c(=O)n1C2)COC(=O)CC3(O)CC (stereo not drawn) | 255
Cn1cc(C(=O)c2ccc(Cl)cc2)cc1C(=O)CN1CCCCC1 | 129 to 130
CC(=O)C(C)(CO)CO | 60
CCOC(=O)c1cc2c(cn1)[nH]c1ccc(C(C)O)cc12 (stereo not drawn) | 125 to 130
Cc1cccc(N2CCCCC2)c1NC(N)=S | 197 to 198
CN(C(c1ccccc1)c1ccccc1)S(=O)(=O)CC(N)=O | 110 to 115
CC(=O)NCc1ccc(C(C)(C)NC(=O)OCc2ccccc2)cc1 | 132 to 135
CCCCNC(=O)n1sc(OCC)nc1=O | 54
CC(C)N(C(=O)n1oc(=O)n(C)c1=O)c1ccc(F)cc1 | 135 to 136

Compound | melting point [°C]
CCOC(=O)C1=C(C)N=C(SCc2ccccc2)N(C(=O)OCC)C1c1ccccc1[N+](=O)[O-] (stereo not drawn) | 110 to 112
Cc1cc2ccccc2nc1C(=O)O | 141 to 142
CC(C)N1C(=O)c2cnc(-c3ccccc3)nc2Nc2ccccc21 | 195 to 196
CCCCCCCCc1cc2c(cc1CCCCCCCC)c1ccsc1c1sccc21 | 62.2 to 63.1
CNC(=O)N(O)C(C)c1cc2ccccc2s1 (stereo not drawn) | 149 to 150
COC(=O)c1cc(-c2ccccc2)sc1Nc1ccc(F)cc1[N+](=O)[O-] | 150
COc1cc(CN2CCc3cc(OCc4ccccc4)c(OC)cc3C2=O)cc(OC)c1 | 82 to 83
C=Cn1ccnc1C(O)(c1ccc(Cl)cc1)c1ccc(Cl)cc1 | 174
CCCc1c(OCCCOc2ccc(C(=O)NCCCCc3cccnc3)cc2)ccc(C(C)=O)c1O | 133 to 134
C=CCN1C2CCC1C1CCC2N1C(c1ccc(C(=O)N(C)C)cc1)c1cccc(O)c1 (stereo not drawn) | 99 to 101
CCCC(=O)NCCc1cc(-c2cccc(C(=O)OC)c2)cc2ccc(OC)cc12 | 86 to 88
CCC(CC)C(O)C(O)C(CC1CCCCC1)NC(=O)C(Cc1c[nH]cn1)NC(=O)C(CC(=O)C(C)(C)C)Cc1ccccc1 (stereo not drawn) | 160
COc1cc(Nc2nccc(-c3ccc(Br)cc3)n2)cc(OC)c1OC | 179
CCOCc1nc2c(N)nc3ccccc3c2n1CC1(OCCS(C)(=O)=O)CCCCC1 | 159 to 161
CC(C)(C)OC(=O)N1CCC(C(=O)N2CCN(c3ccncn3)CC2)CC1 | 159 to 163
CC1=NC2(O)c3cc(-c4ccc(C(F)(F)F)cc4)ccc3CC2S1 (stereo not drawn) | 213 to 217
COc1ccc(S(=O)(=O)Nc2cccnc2Nc2ccc(OC(=O)c3ccccc3)cc2)cc1 | 208 to 210
CCCn1c(CCOC)nc2c(N)nc3cc(OC4CCN(C(N)=O)CC4)ccc3c21 | 207 to 208
O=C(NCCCCCCCCCCCCNC(=O)c1ccc(OC(F)(F)F)cc1)c1ccc(OC(F)(F)F)cc1 | 158 to 159
CC(=O)Nc1cc(Cl)c(C)c(Cl)c1O | 175 to 176
COc1ccc2sc(C(=O)OCC(C)(C)C(O)C(C)(C)C)cc2c1 (stereo not drawn) | 121 to 122

The next lines start with the values.

melting point [°C] | Compound
138 to 139 | Cc1cnc(CSc2cc3ccccc3[nH]2)cc1N1CCCCC1
108 to 109 | Cc1c(NCc2ccccc2)cc2c(c1C)OCC2c1ccc(C(C)C)cc1 (stereo not drawn)
219 to 220 | CCCP(=O)(CCC)Cc1ccc(NC(=O)C2=Cc3cc(-c4ccc(C)cc4)ccc3OCC2)cc1
202 to 204 | CN1Cc2c(-c3noc(CN)n3)ncn2-c2ccsc2C1=O
220 to 222 | CCCCc1c(Cc2ccc(-c3ccccc3C(=O)O)cc2)c(=O)nc2n1CC(=O)N2
191 to 192 | C[C@@H](NC(=O)c1cnn(-c2ccc(Cl)cc2)c1C(C)(C)C)[C@](O)(Cn1cncn1)c1ccc(F)cc1F
133 | Cc1cccc(NC(=O)NCC(=O)N(CC(=O)OC(C)(C)C)c2ccccc2C)c1
84 to 86 | CCNC(=O)ON=C1N=C(C)C(C)(C)S1
111 to 113 | CCn1ncc2c(Cl)c3c(nc21)CCc1ccccc1C3=O
145 | O=C(OCCN1CCC(Nc2nc3ccccc3n2Cc2ccc(F)cc2)CC1)N1CCOCC1
> 200 | COc1cc(CC(=O)Nc2ccc(I)cc2)ccc1NC(=O)Nc1ccccc1C
89 to 91 | CC(C)(C)OC(=O)c1ccc(N2CCC(N)CC2)cc1
152 | Cc1c([N+](=O)[O-])c(=O)n(C)c(=O)n1C
84 to 90 | C=CCn1cc(Cc2ccc(C(=O)O)cc2OC)c2cc(C=C(C)C(=O)NCCC)ccc21
103 to 105 | CC(C)(C)OC(=O)NCCNC(=O)c1ncccc1N
80 to 82 | N#CCCC(C=O)(c1ccccc1)c1ccccc1
133 to 134 | C=CCO/N=C(\C(=O)OC)c1csc(N)n1
127 | COc1cc(OC)nc(Oc2cccc(Oc3nc(OC)cc(OC)n3)c2CBr)n1
125 | CCCNC(=O)Nc1ccc(C(=O)c2c(C)c(OCCOC)c3ccccn23)cc1C(=O)OC
128 to 131 | CCc1cccc(CNC[C@@H](O)[C@H](Cc2cc(F)cc(F)c2)NC(=O)c2ccc(CS(C)(=O)=O)s2)c1
74 to 75 | CCCCCCC(=O)NNC(=O)OC
252 to 253 | C[C@H](Cn1cccn1)NC(=O)c1c[nH]c2ncc(-c3nn(C)c4cc(F)ccc34)nc12
177 to 178 | CNC(=S)NN1Cc2c(C)ccc(C)c2C1
201 to 204 | O=C(NCC1(O)CCCCCC1)c1cc(-c2ncc(Cl)cc2C(=O)O)ccc1Cl
225 to 227 | COC(=O)c1sc2c(c1N=CN(C)C)c1ccccc1c(=O)n2-c1ccccc1
155 to 165 | O=C(C1CCCCC1)C1CCN(C(=O)c2cc(O)c(O)c([N+](=O)[O-])c2)CC1
